Assay results taken from the CheMixHub viscosity set.

Assay: xn = mol fraction of the nth substance listed

CCCCCCCCCO + CCOC(=O)OCC
101 kPa
Conditions | viscosity [mPa·s]
293.15 K, x1 = 0.008 | 0.816
293.15 K, x2 = 0.03967 | 9.964
293.15 K, x2 = 0.1094 | 7.69
293.15 K, x2 = 0.1857 | 5.899
293.15 K, x2 = 0.2865 | 4.28
293.15 K, x2 = 0.4032 | 3.037
293.15 K, x2 = 0.504 | 2.306
293.15 K, x2 = 0.5999 | 1.794
293.15 K, x2 = 0.6927 | 1.434
293.15 K, x2 = 0.8085 | 1.112
293.15 K, x2 = 0.8962 | 0.941
303.15 K, x1 = 0.00855 | 0.711
303.15 K, x2 = 0.03166 | 7.163
303.15 K, x2 = 0.1064 | 5.544
303.15 K, x2 = 0.1908 | 4.257
303.15 K, x2 = 0.2925 | 3.17
303.15 K, x2 = 0.4014 | 2.365
303.15 K, x2 = 0.5113 | 1.798
303.15 K, x2 = 0.62 | 1.39
303.15 K, x2 = 0.6981 | 1.173
303.15 K, x2 = 0.8041 | 0.949
303.15 K, x2 = 0.893 | 0.815
313.15 K, x1 = 0.00592 | 0.625
313.15 K, x2 = 0.06302 | 4.663
313.15 K, x2 = 0.1089 | 4.053
313.15 K, x2 = 0.1969 | 3.156
313.15 K, x2 = 0.301 | 2.399
313.15 K, x2 = 0.4008 | 1.879
313.15 K, x2 = 0.5098 | 1.458
313.15 K, x2 = 0.6011 | 1.199
313.15 K, x2 = 0.689 | 1.006
313.15 K, x2 = 0.8072 | 0.812
313.15 K, x2 = 0.8932 | 0.711

O=[N+]([O-])c1ccccc1O + CN1CCC[C@H]1c1cccnc1
viscosity [mPa·s], 101.33 kPa
Conditions | 308.15 K | 323.15 K
x2 = 0.102 | – | 2.724
x2 = 0.1563 | 5.072 | 3.073
x2 = 0.2019 | 5.996 | 3.527
x2 = 0.302 | 7.601 | 4.122
x2 = 0.3189 | 7.832 | 4.24
x2 = 0.3345 | 8.011 | 4.344
x2 = 0.3506 | 8.004 | 4.389
x2 = 0.3662 | 7.982 | 4.388
x2 = 0.4077 | 7.889 | 4.362
x2 = 0.5005 | 7.375 | 4.12
x2 = 0.603 | 6.569 | 3.83
x2 = 0.6988 | 5.676 | 3.421
x2 = 0.7988 | 4.612 | 2.927
x2 = 0.8937 | 3.86 | 2.523

CC(=O)N(C)C + CN(C)C=O
viscosity [mPa·s], 101 kPa
Conditions | 298.15 K | 308.15 K | 318.15 K
x1 = 0.05 | 0.809 | 0.718 | 0.642
x1 = 0.1062 | 0.816 | 0.724 | 0.647
x1 = 0.15 | 0.822 | 0.729 | 0.652
x1 = 0.2171 | 0.831 | 0.737 | 0.658
x1 = 0.26 | 0.837 | 0.742 | 0.662
x1 = 0.3094 | 0.843 | 0.747 | 0.666
x1 = 0.35 | 0.849 | 0.752 | 0.67
x1 = 0.405 | 0.856 | 0.758 | 0.675
x1 = 0.455 | 0.863 | 0.763 | 0.679
x1 = 0.5042 | 0.87 | 0.769 | 0.684
x1 = 0.55 | 0.876 | 0.774 | 0.688
x1 = 0.6071 | 0.883 | 0.781 | 0.694
x1 = 0.655 | 0.89 | 0.786 | 0.698
x1 = 0.714 | 0.898 | 0.793 | 0.704
x1 = 0.75 | 0.903 | 0.797 | 0.707
x1 = 0.7968 | 0.909 | 0.803 | 0.712
x1 = 0.85 | 0.916 | 0.809 | 0.717
x1 = 0.9112 | 0.925 | 0.816 | 0.723
x1 = 0.95 | 0.93 | 0.82 | 0.727

CC1CCCCC1=O (stereo unspecified) + CN(C)C=O
viscosity [mPa·s], 100 kPa
Conditions | x1 = 0.0825 | x1 = 0.1712 | x1 = 0.2787 | x1 = 0.3863 | x1 = 0.4889 | x1 = 0.5801 | x1 = 0.6819 | x1 = 0.7805 | x1 = 0.8801
303.15 K | 0.889 | 1.027 | 1.192 | 1.353 | 1.505 | 1.638 | 1.783 | 1.921 | 2.06
308.15 K | 0.85 | 0.987 | 1.15 | 1.309 | 1.459 | 1.59 | 1.735 | 1.872 | 2.009
313.15 K | 0.81 | 0.948 | 1.108 | 1.266 | 1.413 | 1.543 | 1.688 | 1.824 | 1.959

CCCCCCCCCO + CN(C)C=O
Conditions | viscosity [mPa·s]
308.15 K, 101.3 kPa, x2 = 0.2201 | 2.965

CC1CCCCC1=O (stereo unspecified) + CN(C)c1ccccc1
viscosity [mPa·s], 101 kPa
Conditions | 303.15 K | 308.15 K
x2 = 0.0798 | 2.088 | 2.021
x2 = 0.1302 | 2.007 | 1.934
x2 = 0.2014 | 1.899 | 1.82
x2 = 0.2705 | 1.801 | 1.718
x2 = 0.3456 | 1.704 | 1.618
x2 = 0.4121 | 1.625 | 1.536
x2 = 0.4952 | 1.536 | 1.446
x2 = 0.5625 | 1.471 | 1.379
x2 = 0.6325 | 1.41 | 1.318
x2 = 0.7025 | 1.355 | 1.264
x2 = 0.7652 | 1.31 | 1.221
x2 = 0.8312 | 1.268 | 1.183
x2 = 0.9025 | 1.226 | 1.148

CC1CCCCC1=O (stereo unspecified) + CNC=O
viscosity [mPa·s], 100 kPa
Conditions | x1 = 0.0925 | x1 = 0.1835 | x1 = 0.2805 | x1 = 0.3919 | x1 = 0.4985 | x1 = 0.5995 | x1 = 0.6901 | x1 = 0.7921 | x1 = 0.8995
303.15 K | 1.655 | 1.722 | 1.79 | 1.865 | 1.934 | 1.997 | 2.052 | 2.111 | 2.171
308.15 K | 1.541 | 1.614 | 1.689 | 1.771 | 1.847 | 1.917 | 1.978 | 2.045 | 2.111
313.15 K | 1.439 | 1.518 | 1.597 | 1.684 | 1.766 | 1.842 | 1.909 | 1.982 | 2.053

CC(=O)N(C)C + CO
viscosity [mPa·s], 101 kPa
Conditions | 303.15 K | 308.15 K | 313.15 K | 318.15 K
x1 = 0.0976 | 0.572 | – | – | –
x1 = 0.1993 | 0.626 | – | – | –
x1 = 0.2967 | 0.673 | – | – | –
x1 = 0.3971 | 0.712 | – | – | –
x1 = 0.4998 | 0.75 | – | – | –
x1 = 0.5962 | 0.78 | – | – | –
x1 = 0.648 | 0.795 | – | – | –
x1 = 0.7762 | 0.829 | – | – | –
x1 = 0.8699 | 0.846 | – | – | –
x2 = 0.125 | 0.872 | 0.795 | 0.737 | 0.693
x2 = 0.232 | 0.856 | 0.784 | 0.725 | 0.675
x2 = 0.324 | 0.832 | 0.763 | 0.709 | 0.655
x2 = 0.405 | 0.797 | 0.733 | 0.682 | 0.625
x2 = 0.644 | 0.697 | 0.647 | 0.598 | 0.539
x2 = 0.915 | 0.567 | 0.531 | 0.492 | 0.431
x2 = 0.939 | 0.544 | 0.507 | 0.471 | 0.413
x2 = 0.961 | 0.529 | 0.494 | 0.458 | 0.398

CCCCCCCCCO + CO
viscosity [mPa·s], 101 kPa
Conditions | 298.15 K | 308.15 K | 318.15 K
x2 = 0.05 | 8.515 | 6.146 | 4.44
x2 = 0.1 | 7.93 | 5.765 | 4.2
x2 = 0.15 | 7.356 | 5.387 | 3.958
x2 = 0.2 | 6.793 | 5.013 | 3.716
x2 = 0.25 | 6.245 | 4.644 | 3.474
x2 = 0.3 | 5.711 | 4.281 | 3.233
x2 = 0.35 | 5.193 | 3.925 | 2.994
x2 = 0.4 | 4.694 | 3.579 | 2.756
x2 = 0.45 | 4.214 | 3.242 | 2.521
x2 = 0.5 | 3.754 | 2.916 | 2.29
x2 = 0.55 | 3.317 | 2.603 | 2.063
x2 = 0.6 | 2.902 | 2.302 | 1.841
x2 = 0.65 | 2.511 | 2.016 | 1.625
x2 = 0.7 | 2.146 | 1.744 | 1.417
x2 = 0.75 | 1.807 | 1.488 | 1.215
x2 = 0.8 | 1.496 | 1.248 | 1.023
x2 = 0.85 | 1.212 | 1.025 | 0.8404
x2 = 0.9 | 0.9583 | 0.8198 | 0.6684
x2 = 0.95 | 0.7342 | 0.6326 | 0.508
